Molecules are shown by their SMILES.

This passage reports IC50 and viability, T/C results from PubChem BioAssay AID2060910 (Molecular Pharmacology Branch, DTP, NCI, 2025).

In this assay the test system is 242566-281-R-J2-PDC complex spheroid viability. Nature of the assay: Anticancer human tumor 242566-281-R-J2-PDC patient-derived pancreatic carcinoma cell line growth inhibition [RAS]. The note with it: for viability, T/C: stronger effect = lower value. The gist of the method:
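Multi-cell-type spheroids: tumor cells plus HUVEC endothelial cells and mesenchymal stem cells. RAS-pathway inhibitors were combined with targeted agents, each dosed in half-log steps down from clinical Cmax, or from 10 microM when Cmax was unknown.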
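Note: spheroids exposed to compound for 7 days before readout.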
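Throughout, for viability, T/C: 100% = DMSO vehicle control wells.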

In the case of `CC(C)n1nc(-c2ccc3oc(N)nc3c2)c2c(N)ncnc21` + C#Cc1c(F)ccc2cc(O)cc(-c3ncc4c(N5CC6CCC(C5)N6)nc(OCC56CCCN5CC(F)C6)nc4c3F)c12, the IC50 reads like this: (curve of first compound, second compound 0.0316 µM) 67.5 nM; (curve of first compound, second compound 0.1 µM) 9.86 nM; (curve of first compound, second compound 0.316 µM) 6.58 nM; (curve of first compound, second compound 1 µM) 3.24 nM; (curve of first compound, second compound 3.16 µM) 0.918 nM; (curve of first compound, second compound 10 µM) 0.639 nM. Besides, the viability, T/C runs as follows: (second compound 0.0316 µM, first compound 0.000316 µM) 91.9%; (second compound 0.0316 µM, first compound 0.001 µM) 95.8%; (second compound 0.0316 µM, first compound 0.00316 µM) 77.1%; (second compound 0.0316 µM, first compound 0.01 µM) 61.3%; (second compound 0.0316 µM, first compound 0.0316 µM) 50.5%; (second compound 0.0316 µM, first compound 0.1 µM) 49.3%. The viability, T/C runs as follows: (second compound 0.1 µM, first compound 0.000316 µM) 81.4%; (second compound 0.1 µM, first compound 0.001 µM) 80.2%; (second compound 0.1 µM, first compound 0.00316 µM) 70.3%; (second compound 0.1 µM, first compound 0.01 µM) 49.9%; (second compound 0.1 µM, first compound 0.0316 µM) 40.6%; (second compound 0.1 µM, first compound 0.1 µM) 40%. The viability, T/C runs as follows: (second compound 0.316 µM, first compound 0.000316 µM) 78.3%; (second compound 0.316 µM, first compound 0.001 µM) 73.5%; (second compound 0.316 µM, first compound 0.00316 µM) 57.9%; (second compound 0.316 µM, first compound 0.01 µM) 44.5%; (second compound 0.316 µM, first compound 0.0316 µM) 38%; (second compound 0.316 µM, first compound 0.1 µM) 31.3%. For the same compound, the viability, T/C runs as follows: (second compound 1 µM, first compound 0.000316 µM) 57.9%; (second compound 1 µM, first compound 0.001 µM) 64%; (second compound 1 µM, first compound 0.00316 µM) 50.4%; (second compound 1 µM, first compound 0.01 µM) 29.4%; (second compound 1 µM, first compound 0.0316 µM) 28.7%; (second compound 1 µM, first compound 0.1 µM) 27.8%. Also, the viability, T/C runs as follows: (second compound 3.16 µM, first compound 0.000316 µM) 63.4%; (second compound 3.16 µM, first compound 0.001 µM) 46.9%; (second compound 3.16 µM, first compound 0.00316 µM) 39.2%; (second compound 3.16 µM, first compound 0.01 µM) 30.7%; (second compound 3.16 µM, first compound 0.0316 µM) 24.1%; (second compound 3.16 µM, first compound 0.1 µM) 19.8%. In addition, the viability, T/C is 55% (second compound 10 µM, first compound 0.000316 µM); 48% (second compound 10 µM, first compound 0.001 µM); 37.9% (second compound 10 µM, first compound 0.00316 µM); 29.1% (second compound 10 µM, first compound 0.01 µM); 21.7% (second compound 10 µM, first compound 0.0316 µM); 17.8% (second compound 10 µM, first compound 0.1 µM).

As for `C=CC(=O)N1CCN(c2nc(OCC3CCCN3C)nc3c(F)c(-c4nc(N)cc(C)c4C(F)(F)F)c(Cl)cc23)C(C)C1` (stereo not given), the viability, T/C by setting is: (compound 0.00316 µM) 102% [middle of 12 runs]; (compound 0.0316 µM) 99.2% [middle of 12 runs]; (compound 0.1 µM) 100% [middle of 12 runs]. In addition, the IC50 reads like this: (compound alone, run of 07/15/2024) > 1000 nM; (curve of compound) > 1000 nM.

With `CC(Nc1ccc2c(c1)OCCn1cc(N3C(=O)OCC3C(F)F)nc1-2)C(N)=O` (stereo not given), the viability, T/C by setting is: (compound 0.0316 µM) 99.1% [middle of 4 runs]; (compound 0.1 µM) 99.7% [middle of 4 runs]; (compound 1 µM) 57.4% [middle of 4 runs]; (compound 3.16 µM) 37.6% [middle of 4 runs]; (compound 10 µM) 28.8% [middle of 4 runs]. The IC50 (curve of compound) was 1.41 µM [middle of 4 runs].

In the case of `CC(=O)OC12COC1CC(O)C1(C)C(=O)C(O)C3=C(C)C(OC(=O)C(O)C(NC(=O)OC(C)(C)C)c4ccccc4)CC(O)(C(OC(=O)c4ccccc4)C21)C3(C)C` (stereo not given) + CCn1c(-c2cc(N3CCN(C)CC3)cnc2C(C)OC)c2c3cc(ccc31)-c1csc(n1)CC(NC(=O)C1CC1C)C(=O)N1CCCC(N1)C(=O)OCC(C)(C)C2, the IC50 by setting is: (curve of first compound, second compound 0.000949 µM) < 31.6 nM; (curve of first compound, second compound 0.003 µM) < 31.6 nM; (curve of first compound, second compound 0.00949 µM) < 31.6 nM; (curve of first compound, second compound 0.03 µM) < 31.6 nM; (curve of first compound, second compound 0.0949 µM) < 31.6 nM; (curve of first compound, second compound 0.3 µM) < 31.6 nM. The viability, T/C reads like this: (second compound 0.000949 µM, first compound 0.0316 µM) 38.4%; (second compound 0.000949 µM, first compound 0.1 µM) 32.3%; (second compound 0.000949 µM, first compound 0.316 µM) 21.8%; (second compound 0.000949 µM, first compound 1 µM) 32.2%; (second compound 0.000949 µM, first compound 3.16 µM) 31.9%; (second compound 0.000949 µM, first compound 10 µM) 27.6%. The viability, T/C by setting is: (second compound 0.003 µM, first compound 0.0316 µM) 34.2%; (second compound 0.003 µM, first compound 0.1 µM) 23.3%; (second compound 0.003 µM, first compound 0.316 µM) 22.6%; (second compound 0.003 µM, first compound 1 µM) 26.7%; (second compound 0.003 µM, first compound 3.16 µM) 32.5%; (second compound 0.003 µM, first compound 10 µM) 25.2%. Moreover, the viability, T/C runs as follows: (second compound 0.00949 µM, first compound 0.0316 µM) 26%; (second compound 0.00949 µM, first compound 0.1 µM) 19%; (second compound 0.00949 µM, first compound 0.316 µM) 21.9%; (second compound 0.00949 µM, first compound 1 µM) 20.2%; (second compound 0.00949 µM, first compound 3.16 µM) 20.9%; (second compound 0.00949 µM, first compound 10 µM) 16.8%. The viability, T/C is 19.1% (second compound 0.03 µM, first compound 0.0316 µM); 16.3% (second compound 0.03 µM, first compound 0.1 µM); 17.9% (second compound 0.03 µM, first compound 0.316 µM); 19% (second compound 0.03 µM, first compound 1 µM); 11.6% (second compound 0.03 µM, first compound 3.16 µM); 10% (second compound 0.03 µM, first compound 10 µM). Further, the viability, T/C runs as follows: (second compound 0.0949 µM, first compound 0.0316 µM) 11.7%; (second compound 0.0949 µM, first compound 0.1 µM) 11.9%; (second compound 0.0949 µM, first compound 0.316 µM) 13.4%; (second compound 0.0949 µM, first compound 1 µM) 10.5%; (second compound 0.0949 µM, first compound 3.16 µM) 6.83%; (second compound 0.0949 µM, first compound 10 µM) 6.76%. Further, the viability, T/C is, setting by setting: (second compound 0.3 µM, first compound 0.0316 µM) 9.32%; (second compound 0.3 µM, first compound 0.1 µM) 9.15%; (second compound 0.3 µM, first compound 0.316 µM) 7.89%; (second compound 0.3 µM, first compound 1 µM) 8.09%; (second compound 0.3 µM, first compound 3.16 µM) 7.91%; (second compound 0.3 µM, first compound 10 µM) 6.31%.

By IC50 is commonly meant the concentration that gives 50% inhibition. A word on the viability, T/C: it is the ratio of treated to control.
